The results in this text go back to ChEMBL document CHEMBL5212743, “Selectivity Literature for EUbOPEN Chemogenomics Library wave 3” (2023).

The target of assay [1] is T1, Serine/threonine-protein kinase ULK2 (Homo sapiens) (UniProt Q8IYT8).
T1 sequence (whole entry): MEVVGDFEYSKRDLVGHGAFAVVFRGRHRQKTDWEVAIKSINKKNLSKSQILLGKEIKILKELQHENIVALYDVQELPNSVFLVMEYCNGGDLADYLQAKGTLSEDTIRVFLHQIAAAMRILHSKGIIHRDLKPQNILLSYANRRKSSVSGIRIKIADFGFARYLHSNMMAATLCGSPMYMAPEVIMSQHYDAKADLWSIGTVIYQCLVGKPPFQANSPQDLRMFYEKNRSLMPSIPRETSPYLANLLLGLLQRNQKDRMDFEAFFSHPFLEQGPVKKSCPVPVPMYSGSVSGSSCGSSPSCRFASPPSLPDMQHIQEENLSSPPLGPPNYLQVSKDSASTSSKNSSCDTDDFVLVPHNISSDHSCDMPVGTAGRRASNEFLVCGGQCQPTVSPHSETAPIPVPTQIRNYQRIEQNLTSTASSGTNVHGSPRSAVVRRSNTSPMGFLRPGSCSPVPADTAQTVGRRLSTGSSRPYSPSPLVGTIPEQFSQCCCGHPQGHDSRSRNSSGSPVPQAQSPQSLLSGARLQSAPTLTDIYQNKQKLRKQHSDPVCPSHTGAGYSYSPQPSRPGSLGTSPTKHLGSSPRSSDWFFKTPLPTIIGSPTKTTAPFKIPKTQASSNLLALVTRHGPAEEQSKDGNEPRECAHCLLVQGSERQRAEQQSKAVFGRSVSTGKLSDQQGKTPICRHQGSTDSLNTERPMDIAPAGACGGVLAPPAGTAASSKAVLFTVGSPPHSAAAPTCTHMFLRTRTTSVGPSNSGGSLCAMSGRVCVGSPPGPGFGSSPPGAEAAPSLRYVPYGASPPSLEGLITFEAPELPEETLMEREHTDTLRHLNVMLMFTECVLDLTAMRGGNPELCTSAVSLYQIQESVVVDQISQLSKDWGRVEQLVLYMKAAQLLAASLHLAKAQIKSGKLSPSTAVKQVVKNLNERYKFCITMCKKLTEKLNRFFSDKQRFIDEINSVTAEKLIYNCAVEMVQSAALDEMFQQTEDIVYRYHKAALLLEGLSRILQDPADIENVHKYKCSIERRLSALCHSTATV
The assay can be described thus: Selectivity interaction (Kinase panel (International centre for protein kinase profiling)) EUB0000627a ULK2. Particulars: at 1 µM.

Assay [2] deals with Serine/threonine-protein kinase 33 (Homo sapiens, UniProt Q9BYT3). The assay is described as follows: Selectivity interaction (Kinase panel (International centre for protein kinase profiling)) EUB0000627a STK33. Particulars: at 1 µM.
Assay [3] deals with Calcium/calmodulin-dependent protein kinase type IV (Homo sapiens) (UniProt Q16566). The assay can be described thus: Selectivity interaction (Kinase panel) EUB0000209b CAMK4. The following applies: at 10 µM.
Assay [4] concerns the target Protein arginine N-methyltransferase 3 (Homo sapiens, UniProt O60678). The assay can be described thus: Selectivity interaction (HMT panel) EUB0000209b PRMT3. The following applies: at 1 µM.
Assay [5] deals with Protein-tyrosine kinase 6 (Homo sapiens) (UniProt Q13882). The following applies: at 1 µM.
Assay [6] deals with Tyrosine-protein kinase ABL2 (Homo sapiens) (UniProt P42684). The assay is described as follows: Selectivity interaction (KinomeScan (DiscoverX)) EUB0000686a ABL2. Particulars: at 1 µM.
In assay [7] the target is Discoidin domain-containing receptor 2 (Homo sapiens) (UniProt Q16832). The assay is described as follows: Selectivity interaction (KinomeScan (DiscoverX)) EUB0000132b DDR2. Particulars: at 1 µM.
Assay [8] deals with Epithelial discoidin domain-containing receptor 1 (Homo sapiens, UniProt Q08345). Particulars: at 1 µM.
Assay [9] has as its target Ribosomal protein S6 kinase alpha-6 (Homo sapiens) (UniProt Q9UK32). The assay can be described thus: Selectivity interaction (KinomeScan (DiscoverX)) EUB0000132b RPS6KA6. Particulars: at 1 µM.
For assay [10], the target named is Myosin light chain kinase family member 4 (Homo sapiens) (UniProt Q86YV6). The assay is described as follows: Selectivity interaction (KinomeScan (DiscoverX)) EUB0000132b MYLK4. Particulars: at 1 µM.
Sequence of Myosin light chain kinase family member 4 (Homo sapiens) (Q86YV6 whole entry): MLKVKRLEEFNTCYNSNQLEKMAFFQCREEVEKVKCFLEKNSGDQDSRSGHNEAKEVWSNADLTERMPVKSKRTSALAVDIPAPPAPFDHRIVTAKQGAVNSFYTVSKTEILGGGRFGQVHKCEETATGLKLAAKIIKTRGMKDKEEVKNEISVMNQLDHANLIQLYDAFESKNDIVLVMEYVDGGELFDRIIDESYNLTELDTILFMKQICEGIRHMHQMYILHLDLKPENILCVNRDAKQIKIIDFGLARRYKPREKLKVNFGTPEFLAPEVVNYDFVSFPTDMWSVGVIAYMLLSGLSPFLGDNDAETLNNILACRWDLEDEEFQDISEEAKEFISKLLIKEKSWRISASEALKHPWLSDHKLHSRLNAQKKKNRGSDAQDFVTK
Assay [11] concerns the target Mitogen-activated protein kinase kinase kinase 20 (Homo sapiens) (UniProt Q9NYL2). The assay is described as follows: Selectivity interaction (KinomeScan (DiscoverX)) EUB0000132b MAP3K20. Particulars: at 1 µM.
For assay [12], the target named is Mast/stem cell growth factor receptor Kit (Homo sapiens, UniProt P10721). The assay can be described thus: (§1) Selectivity interaction (KinomeScan (DiscoverX)) EUB0000132b KIT. The following applies: at 1 µM.
Sequence of Mast/stem cell growth factor receptor Kit (P10721 whole entry): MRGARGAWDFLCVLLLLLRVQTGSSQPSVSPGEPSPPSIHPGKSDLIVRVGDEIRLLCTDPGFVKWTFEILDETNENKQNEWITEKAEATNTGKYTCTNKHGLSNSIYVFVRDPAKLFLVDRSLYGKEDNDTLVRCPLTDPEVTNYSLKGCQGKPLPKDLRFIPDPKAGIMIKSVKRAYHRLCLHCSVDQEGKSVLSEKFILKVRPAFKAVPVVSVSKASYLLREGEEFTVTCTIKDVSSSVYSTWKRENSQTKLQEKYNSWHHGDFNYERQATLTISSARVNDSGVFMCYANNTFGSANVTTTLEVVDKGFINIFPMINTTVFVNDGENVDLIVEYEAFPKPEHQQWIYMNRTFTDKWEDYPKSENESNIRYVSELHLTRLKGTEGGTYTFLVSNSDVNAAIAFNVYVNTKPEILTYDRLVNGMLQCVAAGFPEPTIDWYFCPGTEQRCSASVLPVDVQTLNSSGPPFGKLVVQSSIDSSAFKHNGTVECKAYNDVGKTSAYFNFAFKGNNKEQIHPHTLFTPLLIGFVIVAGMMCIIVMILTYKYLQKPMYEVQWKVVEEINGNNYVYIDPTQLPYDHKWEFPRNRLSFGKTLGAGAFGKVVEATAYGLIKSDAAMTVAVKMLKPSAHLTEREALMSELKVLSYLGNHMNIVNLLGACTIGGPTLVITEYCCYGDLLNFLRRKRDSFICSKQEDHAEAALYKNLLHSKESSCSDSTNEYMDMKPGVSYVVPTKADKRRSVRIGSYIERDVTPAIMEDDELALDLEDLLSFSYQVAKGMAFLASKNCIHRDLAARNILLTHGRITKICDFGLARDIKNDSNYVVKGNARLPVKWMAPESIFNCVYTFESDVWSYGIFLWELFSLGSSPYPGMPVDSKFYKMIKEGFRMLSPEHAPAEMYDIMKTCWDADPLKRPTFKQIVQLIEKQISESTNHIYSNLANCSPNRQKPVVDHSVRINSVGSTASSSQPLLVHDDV
For assay [13], the system named is Mast/stem cell growth factor receptor Kit (Homo sapiens), P10721 [V559D]. The description is as §1. The following applies: at 1 µM.
Sequence of Mast/stem cell growth factor receptor Kit (Homo sapiens), P10721 [V559D] (P10721 whole entry V559D): as the sequence (P10721 whole entry) above, with V559D counted along it
The target of assay [14] is T2, Gamma-aminobutyric acid receptor subunit alpha-1 (Homo sapiens) (UniProt P14867).
T2 sequence (whole entry): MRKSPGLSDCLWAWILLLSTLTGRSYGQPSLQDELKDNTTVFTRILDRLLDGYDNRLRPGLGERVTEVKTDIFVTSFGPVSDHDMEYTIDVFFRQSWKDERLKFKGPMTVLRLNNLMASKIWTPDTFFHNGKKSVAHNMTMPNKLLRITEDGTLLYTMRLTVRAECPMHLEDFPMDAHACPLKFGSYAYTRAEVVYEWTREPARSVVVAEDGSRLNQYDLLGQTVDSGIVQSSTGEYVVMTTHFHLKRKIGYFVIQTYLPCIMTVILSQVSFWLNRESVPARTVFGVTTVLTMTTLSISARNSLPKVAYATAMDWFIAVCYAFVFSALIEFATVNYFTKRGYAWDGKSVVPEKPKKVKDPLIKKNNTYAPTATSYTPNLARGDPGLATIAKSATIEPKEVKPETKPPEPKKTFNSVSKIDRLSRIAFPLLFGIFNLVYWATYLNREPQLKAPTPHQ
The assay is described as follows: Selectivity interaction (GPCR panel (PDSP screen)) EUB0000329a GABRA1. The following applies: at 10 µM.

The target in assay [15] is Adenosine receptor A2a (Homo sapiens) (UniProt P29274). The assay can be described thus: Selectivity interaction (Enzyme panel (kinases, GPCRs, HDACs, phosphatases)) EUB0000329a ADORA2A. The following applies: at 10 µM.
Sequence of Adenosine receptor A2a (Homo sapiens) (P29274 whole entry): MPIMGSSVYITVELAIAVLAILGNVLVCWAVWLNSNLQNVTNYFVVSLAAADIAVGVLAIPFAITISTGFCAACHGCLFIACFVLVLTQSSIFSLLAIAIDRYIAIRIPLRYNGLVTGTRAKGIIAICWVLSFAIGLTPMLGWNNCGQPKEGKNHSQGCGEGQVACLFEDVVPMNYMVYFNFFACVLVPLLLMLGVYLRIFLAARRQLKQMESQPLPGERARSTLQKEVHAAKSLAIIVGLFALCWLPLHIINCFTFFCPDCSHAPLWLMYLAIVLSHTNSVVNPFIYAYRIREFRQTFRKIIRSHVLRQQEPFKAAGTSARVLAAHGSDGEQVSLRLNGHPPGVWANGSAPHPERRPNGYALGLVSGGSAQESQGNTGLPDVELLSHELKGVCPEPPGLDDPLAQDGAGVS
Assay [16] deals with Leucine-rich repeat serine/threonine-protein kinase 2 (Homo sapiens, UniProt Q5S007). The assay is described as follows: Selectivity interaction (KinomeScan (DiscoverX)) EUB0000711a LRRK2. Particulars: at 100 nM.
Assay [17] has as its target Serine/threonine-protein kinase 38-like (Homo sapiens, UniProt Q9Y2H1). The assay can be described thus: Selectivity interaction (KinomeScan (DiscoverX)) EUB0000711a STK38L. The following applies: at 100 nM.
Assay [18] has as its target Serine/threonine-protein kinase Nek1 (Homo sapiens) (UniProt Q96PY6). The assay is described as follows: Selectivity interaction (KinomeScan (DiscoverX)) EUB0000711a NEK1. The following applies: at 100 nM.
The target in assay [19] is T3, Phosphatidylinositol 4,5-bisphosphate 3-kinase catalytic subunit delta isoform (Homo sapiens) (UniProt O00329).
T3 sequence (whole entry): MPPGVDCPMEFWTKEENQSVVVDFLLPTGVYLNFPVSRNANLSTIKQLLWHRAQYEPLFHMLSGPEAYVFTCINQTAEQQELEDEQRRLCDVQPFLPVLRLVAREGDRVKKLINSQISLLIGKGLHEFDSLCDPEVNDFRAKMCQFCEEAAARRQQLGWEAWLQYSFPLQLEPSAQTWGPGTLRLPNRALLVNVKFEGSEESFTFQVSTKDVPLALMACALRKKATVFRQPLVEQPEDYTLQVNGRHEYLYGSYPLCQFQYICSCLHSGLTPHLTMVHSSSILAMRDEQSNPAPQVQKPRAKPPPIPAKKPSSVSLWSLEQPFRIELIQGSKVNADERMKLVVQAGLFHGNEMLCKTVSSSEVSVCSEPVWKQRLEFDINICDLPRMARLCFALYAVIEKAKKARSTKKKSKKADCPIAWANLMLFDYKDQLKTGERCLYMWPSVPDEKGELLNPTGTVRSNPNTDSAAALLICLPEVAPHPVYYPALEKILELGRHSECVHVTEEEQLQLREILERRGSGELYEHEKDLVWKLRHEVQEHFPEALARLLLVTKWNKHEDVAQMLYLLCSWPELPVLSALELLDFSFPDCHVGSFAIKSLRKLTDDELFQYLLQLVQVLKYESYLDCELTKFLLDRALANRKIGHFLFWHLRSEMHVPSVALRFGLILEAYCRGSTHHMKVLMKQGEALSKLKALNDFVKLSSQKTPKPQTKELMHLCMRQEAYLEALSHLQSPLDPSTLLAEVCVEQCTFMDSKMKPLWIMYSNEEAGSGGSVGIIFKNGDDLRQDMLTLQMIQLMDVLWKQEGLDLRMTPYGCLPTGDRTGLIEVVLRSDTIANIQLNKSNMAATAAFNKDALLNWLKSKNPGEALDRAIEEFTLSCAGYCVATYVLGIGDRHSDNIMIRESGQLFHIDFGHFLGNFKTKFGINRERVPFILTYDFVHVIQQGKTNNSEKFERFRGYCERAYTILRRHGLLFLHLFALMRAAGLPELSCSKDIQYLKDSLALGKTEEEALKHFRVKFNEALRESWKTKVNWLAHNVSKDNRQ
The following applies: at 1 µM.

The target of assay [20] is Phosphatidylinositol 4,5-bisphosphate 3-kinase catalytic subunit alpha isoform (Homo sapiens, UniProt P42336). Particulars: at 1 µM.

Sequence of Serine/threonine-protein kinase Nek1 (Homo sapiens) (Q96PY6 whole entry, canonical isoform): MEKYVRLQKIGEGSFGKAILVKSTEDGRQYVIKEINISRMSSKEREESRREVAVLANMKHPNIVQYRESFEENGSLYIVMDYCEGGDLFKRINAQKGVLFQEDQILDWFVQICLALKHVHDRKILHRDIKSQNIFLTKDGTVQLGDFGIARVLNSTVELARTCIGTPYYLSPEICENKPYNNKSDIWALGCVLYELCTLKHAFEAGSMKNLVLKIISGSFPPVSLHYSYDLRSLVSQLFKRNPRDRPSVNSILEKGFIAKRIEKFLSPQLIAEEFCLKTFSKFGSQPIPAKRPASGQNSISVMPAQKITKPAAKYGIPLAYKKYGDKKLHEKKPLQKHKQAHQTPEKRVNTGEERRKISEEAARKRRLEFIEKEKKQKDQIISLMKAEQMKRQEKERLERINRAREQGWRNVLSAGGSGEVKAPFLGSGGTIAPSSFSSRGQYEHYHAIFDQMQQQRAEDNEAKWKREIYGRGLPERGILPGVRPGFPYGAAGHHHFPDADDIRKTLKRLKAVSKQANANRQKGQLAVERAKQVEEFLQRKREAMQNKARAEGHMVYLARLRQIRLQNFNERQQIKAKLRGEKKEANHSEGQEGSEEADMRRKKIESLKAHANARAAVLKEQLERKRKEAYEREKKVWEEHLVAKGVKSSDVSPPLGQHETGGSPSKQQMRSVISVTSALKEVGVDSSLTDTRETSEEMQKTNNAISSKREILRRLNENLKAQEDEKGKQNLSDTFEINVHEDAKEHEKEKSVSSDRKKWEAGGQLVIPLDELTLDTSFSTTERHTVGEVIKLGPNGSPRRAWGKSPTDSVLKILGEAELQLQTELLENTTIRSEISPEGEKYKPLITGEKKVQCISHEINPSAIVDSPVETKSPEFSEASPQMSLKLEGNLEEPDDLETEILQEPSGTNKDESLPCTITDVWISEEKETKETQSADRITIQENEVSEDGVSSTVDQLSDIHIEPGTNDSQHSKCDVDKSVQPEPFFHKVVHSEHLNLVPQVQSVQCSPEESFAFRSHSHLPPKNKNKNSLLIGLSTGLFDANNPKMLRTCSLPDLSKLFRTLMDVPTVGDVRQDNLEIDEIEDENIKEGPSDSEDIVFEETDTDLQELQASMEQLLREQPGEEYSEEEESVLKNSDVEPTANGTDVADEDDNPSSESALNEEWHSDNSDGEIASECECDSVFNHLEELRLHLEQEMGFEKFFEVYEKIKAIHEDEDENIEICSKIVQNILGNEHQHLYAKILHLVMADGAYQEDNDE
Sequence of Protein arginine N-methyltransferase 3 (O60678 2-531 limits assumed): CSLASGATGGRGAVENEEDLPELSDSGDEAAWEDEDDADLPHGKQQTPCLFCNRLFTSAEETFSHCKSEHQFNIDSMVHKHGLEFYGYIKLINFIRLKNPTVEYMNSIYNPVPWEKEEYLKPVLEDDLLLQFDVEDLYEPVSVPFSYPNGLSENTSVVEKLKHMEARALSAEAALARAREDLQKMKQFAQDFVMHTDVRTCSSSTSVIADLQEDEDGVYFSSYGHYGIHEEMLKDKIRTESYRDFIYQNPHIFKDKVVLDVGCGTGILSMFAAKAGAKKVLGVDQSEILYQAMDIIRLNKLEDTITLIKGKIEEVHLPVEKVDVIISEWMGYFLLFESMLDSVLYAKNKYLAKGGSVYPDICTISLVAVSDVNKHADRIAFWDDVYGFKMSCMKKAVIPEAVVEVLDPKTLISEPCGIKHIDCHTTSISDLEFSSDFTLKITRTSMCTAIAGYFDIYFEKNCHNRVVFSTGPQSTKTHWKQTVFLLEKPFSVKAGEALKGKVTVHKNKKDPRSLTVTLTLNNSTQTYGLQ
Sequence of Serine/threonine-protein kinase 38-like (Q9Y2H1 2-464 limits assumed): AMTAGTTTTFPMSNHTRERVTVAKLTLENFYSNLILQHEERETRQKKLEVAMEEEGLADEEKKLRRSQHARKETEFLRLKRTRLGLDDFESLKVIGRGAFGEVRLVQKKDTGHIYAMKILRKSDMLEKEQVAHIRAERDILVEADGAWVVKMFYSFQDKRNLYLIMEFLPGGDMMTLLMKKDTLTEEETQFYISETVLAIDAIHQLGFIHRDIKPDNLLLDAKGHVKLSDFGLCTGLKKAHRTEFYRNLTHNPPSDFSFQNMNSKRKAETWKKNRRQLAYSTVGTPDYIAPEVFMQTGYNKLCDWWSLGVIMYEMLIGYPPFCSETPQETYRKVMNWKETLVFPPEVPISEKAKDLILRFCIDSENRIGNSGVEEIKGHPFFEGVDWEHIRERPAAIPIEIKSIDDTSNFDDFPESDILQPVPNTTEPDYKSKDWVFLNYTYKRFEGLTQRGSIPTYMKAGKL
Sequence of Ribosomal protein S6 kinase alpha-6 (Homo sapiens) (Q9UK32 whole entry): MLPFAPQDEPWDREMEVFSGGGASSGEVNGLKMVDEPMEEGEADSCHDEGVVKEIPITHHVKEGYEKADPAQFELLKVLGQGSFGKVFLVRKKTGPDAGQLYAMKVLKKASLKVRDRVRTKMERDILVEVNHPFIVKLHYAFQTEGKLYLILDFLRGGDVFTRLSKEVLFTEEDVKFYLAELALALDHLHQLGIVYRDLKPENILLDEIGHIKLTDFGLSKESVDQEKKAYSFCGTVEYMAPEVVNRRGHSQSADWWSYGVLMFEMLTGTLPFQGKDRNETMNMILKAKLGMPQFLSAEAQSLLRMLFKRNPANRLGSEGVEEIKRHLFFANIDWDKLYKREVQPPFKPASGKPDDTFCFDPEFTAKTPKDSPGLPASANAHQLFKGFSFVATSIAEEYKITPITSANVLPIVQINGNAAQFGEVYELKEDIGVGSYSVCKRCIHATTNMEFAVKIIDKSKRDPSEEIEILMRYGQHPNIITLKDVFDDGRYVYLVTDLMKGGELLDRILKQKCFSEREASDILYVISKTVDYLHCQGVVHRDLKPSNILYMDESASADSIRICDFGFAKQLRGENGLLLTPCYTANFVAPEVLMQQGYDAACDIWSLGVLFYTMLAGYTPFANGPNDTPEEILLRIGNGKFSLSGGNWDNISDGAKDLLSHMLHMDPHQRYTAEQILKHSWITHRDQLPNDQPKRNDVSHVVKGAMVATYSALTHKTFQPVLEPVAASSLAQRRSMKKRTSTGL

On to `CCC(=O)Nc1cccc(Oc2nc(Nc3ccc(N4CCN(C)CC4)cc3OC)ncc2Cl)c1`, for which the % of kinase activity amounted to 37% in [1] and 33% in assay [2].

On to `CCCc1cc(C)[nH]c(=O)c1CNC(=O)c1cc(-c2ccc(N3CCN(C(C)C)CC3)nc2)cc2c1cnn2C(C)C`, for which the % of inhibition in assay [3] was 20%. Besides, the % activity remaining in assay [4] was more than 70%.

For the compound `C=CC(=O)N1CCC([C@@H]2CCNc3c(C(N)=O)c(-c4ccc(Oc5ccccc5)cc4)nn32)CC1`, the % of inhibition in assay [5] was found to be 99%.

`CN(C)C(=O)c1cc2cnc(Nc3ccc(N4CCNCC4)cn3)nc2n1C1CCCC1` showed a % of control in assay [6] of 5.8%.

In the case of `Nc1c(C(=O)NCc2ccc(C(=O)NCCCC3CCCCC3)cc2)cnn1-c1ccccc1`, the % of control in assay [7] came out at 31%; in assay [8], 3%; in assay [9], 29%; in [10] it was 31%; in assay [11], 8.8%; in assay [12], 7.7%. In addition, the % of control in [13] amounted to 3%.

For the compound `O=C(NNS(=O)(=O)c1ccccc1F)c1cc(F)cc(-c2ccccn2)c1`, the % of inhibition worked out at 75.7% in assay [14] and 49% in assay [15].

On to `O=C(NCCCC1CCCCC1)c1ccc(CNC(=O)c2cnn(-c3ccccc3)c2C(F)(F)F)cc1`, for which the % of control in assay [16] came to 57%; in [17], 20%; in assay [18] it was 58%.

`Cc1nc(-c2cn3c(n2)-c2ccc(-c4cnn(C(C)(C)C(N)=O)c4)cc2OCC3)n(C(C)C)n1`: the % of control turned out to be 97.9% in [19] and 98.6% in assay [20].
